Data reported in ChEMBL document CHEMBL1201862, “PubChem BioAssay data set” (2004).
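Method: 48-hour compound exposure of cells in 96-well plates, five concentrations, linear interpolation of endpoints. GI50 is the concentration that inhibits growth by half.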 Active and inactive are the calls of the source. Cut-off read from the data, not from the text of the source: active = GI50 up to about 1.1 µM and inactive = higher.

Columns and labels:
Test in all cases: inhibition of tumour cell growth, NCI panel, 48 h
K562 = tested on: K562
NCI-H226 = tested on: NCI-H226
SNB-19 = tested on: SNB-19
OVCAR-5 = tested on: OVCAR-5
Hs-578T = tested on: Hs-578T
DU-145 = tested on: DU-145
MDA-MB-231 = tested on: MDA-MB-231
HT-29 = tested on: HT-29
KM12 = tested on: KM12
HL-60 = tested on: HL-60
RXF 393 = tested on: RXF 393
SR = tested on: SR
TK-10 = tested on: TK-10
ACHN = tested on: ACHN
PC-3 = tested on: PC-3
EKVX = tested on: EKVX
UO-31 = tested on: UO-31
MCF7 = tested on: MCF7
SW-620 = tested on: SW-620
OVCAR-3 = tested on: OVCAR-3

| SMILES | GI50 (K562) | GI50 (NCI-H226) | GI50 (SNB-19) | GI50 (OVCAR-5) | GI50 (Hs-578T) | GI50 (DU-145) | GI50 (MDA-MB-231) | GI50 (HT-29) | GI50 (KM12) | GI50 (HL-60) | GI50 (RXF 393) | GI50 (SR) | GI50 (TK-10) | GI50 (ACHN) | GI50 (PC-3) | GI50 (EKVX) | GI50 (UO-31) | GI50 (MCF7) | GI50 (SW-620) | GI50 (OVCAR-3) |
| --- | --- | --- | --- | --- | --- | --- | --- | --- | --- | --- | --- | --- | --- | --- | --- | --- | --- | --- | --- | --- |
| C=C1c2nc3ccccc3n2C=C(c2ccccc2)N1c1ccc(Cl)cc1 | 51.3 µM (inactive) | 29 µM (inactive) | 46.1 µM (inactive) | 21.7 µM (inactive) | 21.3 µM (inactive) | 59.8 µM (inactive) | 17.4 µM (inactive) | 18.6 µM (inactive) | 24 µM (inactive) | > 100 µM (inactive) | 17.5 µM (inactive) | 64.7 µM (inactive) | 13.4 µM (inactive) | 9.18 µM (inactive) | 25.7 µM (inactive) | 13.4 µM (inactive) | 53.1 µM (inactive) | 11.2 µM (inactive) | 26.5 µM (inactive) | 20 µM (inactive) |
| C=CC(Br)(CBr)CCC(Br)C(C)(C)Cl (stereo not given) | 1.75 µM (inactive) | 25.3 µM (inactive) | 1.71 µM (inactive) | 7.11 µM (inactive) | 3.4 µM (inactive) | 3.37 µM (inactive) | 2.49 µM (inactive) | 1.53 µM (inactive) | 1.6 µM (inactive) | 0.807 µM (active) | 2.99 µM (inactive) | 1.66 µM (inactive) | 2.72 µM (inactive) | 2.42 µM (inactive) | 3.27 µM (inactive) | 8.18 µM (inactive) | 1.65 µM (inactive) | 1.83 µM (inactive) | 2.05 µM (inactive) | 2.23 µM (inactive) |
| C1COC2SC3=C(SC(=C4SC5=C(SCCS5)S4)S3)SC2O1 (stereo not given) | 73.1 µM (inactive) | > 100 µM (inactive) | > 100 µM (inactive) | > 100 µM (inactive) | 80.9 µM (inactive) | > 100 µM (inactive) | > 100 µM (inactive) | > 100 µM (inactive) | 17.4 µM (inactive) | 33.9 µM (inactive) | > 100 µM (inactive) | 3.68 µM (inactive) | > 100 µM (inactive) | > 100 µM (inactive) | > 100 µM (inactive) | > 100 µM (inactive) | > 100 µM (inactive) | > 100 µM (inactive) | 68.7 µM (inactive) | > 100 µM (inactive) |
| CC(CO)[C@H]1OC(=O)C=C2[C@@]13O[C@@H]3[C@H]1OC(=O)[C@@]3(C)[C@H]4O[C@H]4C[C@@]2(C)[C@@H]13 (stereo not given in full) | 1.17 µM (inactive) | 1.27 µM (inactive) | 1.47 µM (inactive) | 3.78 µM (inactive) | 2.52 µM (inactive) | 1.39 µM (inactive) | 2.51 µM (inactive) | 1.19 µM (inactive) | 1.19 µM (inactive) | 0.343 µM (active) | 1.62 µM (inactive) | 0.288 µM (active) | 2.07 µM (inactive) | 0.843 µM (active) | 2.96 µM (inactive) | 2.64 µM (inactive) | 1.73 µM (inactive) | 1.07 µM (active) | 1.65 µM (inactive) | 2.17 µM (inactive) |
| O=C(c1ccccc1)c1ccc2[nH]c(-c3c(Cl)c(Cl)c(Cl)c(Cl)c3C(=O)N/N=C/c3cccc(Oc4ccccc4)c3)nc2c1 | 46.5 µM (inactive) | 84.1 µM (inactive) | 69.2 µM (inactive) | > 100 µM (inactive) | > 100 µM (inactive) | > 100 µM (inactive) | > 100 µM (inactive) | > 100 µM (inactive) | > 100 µM (inactive) | 17.6 µM (inactive) | 68.2 µM (inactive) | 36.3 µM (inactive) | > 100 µM (inactive) | > 100 µM (inactive) | 77.4 µM (inactive) | > 100 µM (inactive) | > 100 µM (inactive) | 42 µM (inactive) | 56.1 µM (inactive) | 75.7 µM (inactive) |
